Measured values from patent publication EP0844825B1, “INSECTICIDAL N-(SUBSTITUTED ARYLMETHYL)-4- BIS(SUBSTITUTED PHENYL OR PYRIDYL)METHYL]PIPERIDINES” (FMC CORPORATION, priority 1995, dated 1996).

Tested on: tobacco budworm (Heliothis virescens [Fabricius])
Experiment: Diet test: test chemical incorporated into artificial diet of tobacco budworm larvae, 5-day exposure
Format: in vivo
Details: for IC50 / LC50 / mortality at 100 µM / pest or weed control at 100 µM: Heliothis virescens, 120 h; for IC50: negative log of the concentration that provides 50% growth inhibition, by linear regression, read-out: pl50 (converted); for IC50 / LC50 / pest or weed control at 100 µM / Percent Growth Inhibition: 5 days, * = average of more than one test; for LC50: negative log of the concentration that provides 50% mortality, read-out: pLC50 (converted); for mortality at 100 µM / pest or weed control at 100 µM: feed or water; for mortality at 100 µM: read-out: Percent Mortality; for pest or weed control at 100 µM / Percent Growth Inhibition: rate of application 4 (negative log of molar concentration in the diet), second instar larvae, 25°C; for pest or weed control at 100 µM: read-out: Percent Growth Inhibition
Method: Candidate insecticides were incorporated into an artificial diet for evaluation of insecticidal activity against the tobacco budworm (Heliothis virescens [Fabricius]) in the following manner. Stock solutions of test chemical in dimethyl sulfoxide, ranging from […], were prepared for each rate of application. One hundred microliters of each of the stock solutions was manually stirred into 50 mL of a molten (65-70°C) wheat germ-based artificial diet. The 50 mL of molten diet containing the test chemical was poured evenly into twenty wells in the outer two rows on each side of a twenty-five well, five row plastic tray. (Each well in the tray was about 1 cm in depth, with an opening of 3 cm by 4 cm at the lip.) Molten diet containing only dimethyl sulfoxide at the levels used in the test chemical-treated diet was poured into the five wells in the third (center) row of the tray. Each tray therefore contained one test chemical at a single rate of application, together with an untreated control. The rates of application, expressed as the negative log of the molar concentration, and the corresponding concentrations of the stock solution prepared for each rate are shown below:
Single second instar tobacco budworm larvae, selected at a stage of growth at which they uniformly weigh about 5 mg each, were placed in each well. Upon completion of infestation, a sheet of clear plastic was heat-sealed over the top of the tray by use of a common household flat.iron. The trays were held at 25°C at 60% relative humidity for five days in a growth chamber. Lighting was set at 14 hours of light and 10 hours of darkness. After the 5-day exposure period, mortality counts were taken, and the surviving insects were weighed. From the weights of the surviving insects that fed on the treated diet as compared to those insects that fed on the untreated diet, the percent growth inhibition caused by each test chemical was determined. […] Also, where possible, the negative log of the concentration of the test chemical that provided 50% mortality (pLC50) was determined.

Structure (SMILES)	mortality at 100 µM [%]	also measured
OC(c1ccc(OC(F)(F)F)cc1)(c1ccccc1OC(F)(F)F)C1CCN(Cc2ccc(C3OCCO3)cc2)CC1 (stereo not drawn) [Compound 103, N-[4-(1,3-dioxolan-2-yl)phenylmethyl]-4-[(4-trifluoromethoxyphenyl)(2-trifluoromethoxyphenyl)hydroxymethyl]piperidine]	100	IC50: ≤ 0.316 µM; LC50: 12.6 µM; pest or weed control at 100 µM: 100%
OC(c1ccc(C(F)(F)F)cc1)(c1ccc(C(F)(F)F)cc1)C1CCN(Cc2ccc(-c3nnn(CCCF)n3)cc2)CC1 [Compound 40]	100	IC50: 0.631 µM; LC50: 3.98 µM; Percent Growth Inhibition: 100%
[O-][N+]1(Cc2ccc(Oc3ccc(C(F)(F)F)cn3)cc2)CCC(C(O)(c2ccc(C(F)(F)F)cc2)c2ccc(C(F)(F)F)cc2)CC1 (stereo not drawn) [Compound 71]	100	
[O-][N+]1(Cc2ccc(-c3ncccn3)cc2)CCC(C(O)(c2ccc(C(F)(F)F)cc2)c2ccc(C(F)(F)F)cc2)CC1 (stereo not drawn) [Compound 101]	100	
COc1ccc(CCN2CCC(C(O)(c3ccc(OC(F)(F)F)cc3)c3ccc(OC(F)(F)F)cc3)CC2)cc1 [Compound 2, N-[2-(4-methoxyphenyl)ethyl]-4-[bis(4-trifluoromethoxyphenyl)hydroxymethyl]piperidine]	25	IC50: 2.51 µM; LC50: > 100 µM; pest or weed control at 100 µM: 98%
OC(c1ccc(OC(F)(F)F)cc1)(c1ccc(OC(F)(F)F)cc1)C1CCN(Cc2ccc(-c3csnn3)cc2)CC1 [Compound 14]	100	IC50: 3.16 µM; LC50: 31.6 µM; Percent Growth Inhibition: 99%
[O-][N+]1(Cc2ccc(Oc3ccccn3)cc2)CCC(C(O)(c2ccc(C(F)(F)F)cc2)c2ccc(C(F)(F)F)cc2)CC1 (stereo not drawn) [Compound 54]	100	
N#Cc1ccc(Oc2ccc(CN3CCC(C(O)(c4ccc(C(F)(F)F)cc4)c4ccc(C(F)(F)F)cc4)CC3)cc2)nc1 [Compound 72]	100	
Cc1cccc(-c2ccc(CN3CCC(C(O)(c4ccc(C(F)(F)F)cc4)c4ccc(C(F)(F)F)cc4)CC3)cc2)n1 [Compound 49]	100	
Cc1cccc(-c2ccc(C[N+]3([O-])CCC(C(O)(c4ccc(C(F)(F)F)cc4)c4ccc(C(F)(F)F)cc4)CC3)cc2)n1 (stereo not drawn) [Compound 50]	100	
[O-][N+]1(Cc2ccc(-c3ccc(Cl)cn3)cc2)CCC(C(O)(c2ccc(C(F)(F)F)cc2)c2ccc(C(F)(F)F)cc2)CC1 (stereo not drawn) [Compound 48]	85	
CC1CN(c2ccc(CN3CCC(C(O)(c4ccc(C(F)(F)F)cc4)c4ccc(C(F)(F)F)cc4)CC3)cc2)C(=O)O1 (stereo not drawn) [Compound 22]	35	
CC(C)n1nnc(-c2ccc(CN3CCC(C(O)(c4ccc(C(F)(F)F)cc4)c4ccc(C(F)(F)F)cc4)CC3)cc2)n1 [Compound 35]	100	
OC(c1ccc(C(F)(F)F)cc1)(c1ccc(C(F)(F)F)cc1)C1CCN(Cc2ccc(Oc3cc(C(F)(F)F)ccn3)cc2)CC1 [Compound 64]	100	
CC(C)(Oc1ccc(CN2CCC(C(O)(c3ccc(C(F)(F)F)cc3)c3ccc(C(F)(F)F)cc3)CC2)cc1)c1ccccn1 [Compound 86]	30	
[O-][n+]1ccccc1-c1ccc(C[N+]2([O-])CCC(C(O)(c3ccc(C(F)(F)F)cc3)c3ccc(C(F)(F)F)cc3)CC2)cc1 (stereo not drawn) [Compound 46]	100	
Cc1ccc(-c2ccc(CN3CCC(C(O)(c4ccc(C(F)(F)F)cc4)c4ccc(C(F)(F)F)cc4)CC3)cc2)nc1 [Compound 51]	100	
Cn1cnc(-c2ccc(CN3CCC(C(O)(c4ccc(C(F)(F)F)cc4)c4ccc(C(F)(F)F)cc4)CC3)cc2)n1 [Compound 27]	100	
[O-][N+]1(Cc2ccc(OCc3cccnc3)cc2)CCC(C(O)(c2ccc(C(F)(F)F)cc2)c2ccc(C(F)(F)F)cc2)CC1 (stereo not drawn) [Compound 82]	25	

Structure (SMILES)	mortality at 100 µM [%]	also measured
CC(=O)Nc1ccc(CN2CCC(C(O)(c3ccc(OC(F)(F)F)cc3)c3ccc(OC(F)(F)F)cc3)CC2)cc1 [Compound 3, N-[4-(methylcarbonylamino)phenylmethyl]-4-[bis(4-trifluoromethoxyphenyl)hydroxymethyl]piperidine]	0	IC50: 20 µM; pest or weed control at 100 µM: 95%
COCn1nnc(-c2ccc(C[N+]3([O-])CCC(C(O)(c4ccc(C(F)(F)F)cc4)c4ccc(C(F)(F)F)cc4)CC3)cc2)n1 (stereo not drawn) [Compound 42]	100	
Cc1ccc(Oc2ccc(C[N+]3([O-])CCC(C(O)(c4ccc(C(F)(F)F)cc4)c4ccc(C(F)(F)F)cc4)CC3)cc2)nc1 (stereo not drawn) [Compound 69]	100	
CC(Oc1ccc(CN2CCC(C(O)(c3ccc(C(F)(F)F)cc3)c3ccc(C(F)(F)F)cc3)CC2)cc1)c1ccccn1 (stereo not drawn) [Compound 83]	100	IC50: 1 µM; LC50: 31.6 µM; Percent Growth Inhibition: 100%
Cc1ccc(Oc2ccc(CN3CCC(C(O)(c4ccc(C(F)(F)F)cc4)c4ccc(C(F)(F)F)cc4)CC3)cc2)nc1 [Compound 68]	90	
CC(C)c1cnc(-c2ccc(CN3CCC(C(O)(c4ccc(C(F)(F)F)cc4)c4ccc(C(F)(F)F)cc4)CC3)cc2)o1 [Compound 19]	90	
[O-][N+]1(Cc2ccc(Oc3ncccn3)cc2)CCC(C(O)(c2ccc(C(F)(F)F)cc2)c2ccc(C(F)(F)F)cc2)CC1 (stereo not drawn) [Compound 96]	100	
OC(c1ccc(C(F)(F)F)cc1)(c1ccc(C(F)(F)F)cc1)C1CCN(Cc2ccc(-c3nnn(CCF)n3)cc2)CC1 [Compound 98]	100	
O=C1OCCN1c1ccc(CN2CCC(C(O)(c3ccc(C(F)(F)F)cc3)c3ccc(C(F)(F)F)cc3)CC2)cc1 [Compound 20]	10	
OC(c1ccc(C(F)(F)F)cc1)(c1ccc(C(F)(F)F)cc1)C1CCN(Cc2ccc(Oc3nsnc3Cl)cc2)CC1 [Compound 29]	60	
OC(c1ccc(C(F)(F)F)cc1)(c1ccc(C(F)(F)F)cc1)C1CCN(Cc2ccc(-c3nnn(C(F)F)n3)cc2)CC1 [Compound 38]	100	IC50: 0.631 µM; LC50: 2.51 µM; Percent Growth Inhibition: 100%
OC(c1ccc(C(F)(F)F)cc1)(c1ccc(C(F)(F)F)cc1)C1CCN(Cc2ccc(Oc3ncccn3)cc2)CC1 [Compound 95]	100	
CC1CN(c2ccc(C[N+]3([O-])CCC(C(O)(c4ccc(C(F)(F)F)cc4)c4ccc(C(F)(F)F)cc4)CC3)cc2)C(=O)O1 (stereo not drawn) [Compound 23]	65	
Cc1cc(C)n(-c2ccc(CN3CCC(C(O)(c4ccc(OC(F)(F)F)cc4)c4ccc(OC(F)(F)F)cc4)CC3)cc2)n1 [Compound 5]	100	
Cc1cccnc1Oc1ccc(C[N+]2([O-])CCC(C(O)(c3ccc(C(F)(F)F)cc3)c3ccc(C(F)(F)F)cc3)CC2)cc1 (stereo not drawn) [Compound 58]	100	
Cc1cccc(Oc2ccc(C[N+]3([O-])CCC(C(O)(c4ccc(C(F)(F)F)cc4)c4ccc(C(F)(F)F)cc4)CC3)cc2)[n+]1[O-] (stereo not drawn) [Compound 77]	60	
OC(c1ccc(C(F)(F)F)cc1)(c1ccc(C(F)(F)F)cc1)C1CCN(Cc2ccc(OCc3ccccn3)cc2)CC1 [Compound 78]	100	
[O-][n+]1ccccc1Oc1ccc(CN2CCC(C(O)(c3ccc(C(F)(F)F)cc3)c3ccc(C(F)(F)F)cc3)CC2)cc1 [Compound 55]	55	IC50: 3.16 µM; LC50: 79.4 µM; Percent Growth Inhibition: 100%
